Results: patent US20230203023A1, “SALT AND CRYSTAL FORMS OF GLP-1R AGONISTS AND USES THEREOF” (QILU REGOR THERAPEUTICS INC., priority 2020, published 2023)
Structures can show the parent of a compound that is named as a salt. Marks after values point to notes of the source that are not given here.

Assays:
Type in all cases: physicochemical
Hygroscopicity, DVS test = conditions: 25° C.
Experimental: DVS was measured via a SMS (Surface Measurement Systems) DVS Intrinsic. The relative humidity at 25° C. were calibrated against deliquescence point of LiCl, Mg(NO3)2 and KCl.
To investigate the solid form stability as a function of humidity, DVS isotherm plot of 1:1 Compound I Tris Salt (Form A) was collected between 0% RH and 95% RH at 25° C. […] Considering the 1:1 Compound I Tris Salt (Form A) is a hydrate and may dehydrate under low humidity, DVS was also tested at 20 and 30° C. to further confirm the suitable storage condition and avoid dehydration. […] Combing the VH-XRPD and DVS results: the condition of 20-30° C. and relative humidity ≥40% RH is suitable for the storage of 1:1 Compound I Tris Salt (Form A).
To investigate the solid form stability as a function of humidity, DVS isotherm plots of 1:1 Compound II Citrate Salt (Form A) and 1:1 Compound II Tris Salt (Form B) were collected at 25° C. between 0% RH and 95% RH. […] The water uptake increased by 0.97% from 10% to 80% RH and a platform was observed.

[1] = Solution stability evaluation in SGF (pH 1.8) and pH 8.0 buffer at RT; conditions: RT
Experimental: Weigh 100 mg of sodium chloride and 50 mg of Triton X-100 into a 50-mL volumetric flask. Add appropriate volume of purified water and sonicate until all solids are completely dissolved. Add about 68 μL of 12 M HCl and sufficient purified water closely to the target volume and adjust to pH 1.8. Dilute to volume with purified water, mix well and check the pH with a pH meter.
Add sufficient purified water closely to the target volume and adjust to pH 8.0. Dilute to volume with purified water, mix well and check the pH with a pH meter. […]
Solution stability was evaluated for 1:1 Compound II Citrate Salt (Form A) and 1:1 Compound II Tris Salt (Form B) in SGF (pH 1.8) and pH 8.0 buffer at RT. Clear solutions were prepared at two concentrations (0.01 mg/mL, 0.05 mg/mL) and then placed at RT for 6 hours, 1/5 days or 6 hours, 1/3/7 days. […] The HPLC purity and pH value were tested and the results were summarized from Table 7-3-1 to Table 7-3-4.

[2] = Solid stability evaluation (I/II), XRPD and HPLC
Experimental: To evaluate the physical and chemical stability of 1:1 Compound I Tris Salt (Form A) and amorphous free form, samples were stored under the conditions of 60° C. for 1 day and 25° C./60% RH or 40° C./75% RH for 1 week, respectively.
To evaluate the physical and chemical stability of 1:1 Compound II Citrate Salt (Form A), 1:1 Compound II Tris Salt (Form B) and freeform, samples were stored under the conditions of 60° C. for 1 day and 25° C./60% RH or 40° C./75% RH for 1 week, respectively.

[3] = Solid stability evaluation (II/II), HPLC in triplicate
Experimental: The chemical stability of 1:1 Compound II Citrate Salt (Form A) and 1:1 Compound II Tris Salt (Form B) was further evaluated at solid state, samples were stored under the ambient condition or 40° C./75% RH for 1 day and 3 days, respectively.

[4] = 6 hours, 0.01 mg/mL, pH 1.8 (SGF)
[5] = 6 hours, 0.01 mg/mL, pH 8.0 (50 mM phosphate)
[6] = 6 hours, 0.05 mg/mL, pH 1.8 (SGF)
[7] = 6 hours, 0.05 mg/mL, pH 8.0 (50 mM phosphate)
[8] = 1 day, 0.01 mg/mL, pH 1.8 (SGF)
[9] = 1 day, 0.01 mg/mL, pH 8.0 (50 mM phosphate)
[10] = 1 day, 0.05 mg/mL, pH 1.8 (SGF)
[11] = 1 day, 0.05 mg/mL, pH 8.0 (50 mM phosphate)
[12] = 3 days, 0.01 mg/mL, pH 1.8 (SGF)
[13] = 3 days, 0.01 mg/mL, pH 8.0 (50 mM phosphate)
[14] = 3 days, 0.05 mg/mL, pH 1.8 (SGF)
[15] = 3 days, 0.05 mg/mL, pH 8.0 (50 mM phosphate)
[16] = 7 days, 0.01 mg/mL, pH 1.8 (SGF)
[17] = 7 days, 0.01 mg/mL, pH 8.0 (50 mM phosphate)
[18] = 7 days, 0.05 mg/mL, pH 1.8 (SGF)
[19] = 7 days, 0.05 mg/mL, pH 8.0 (50 mM phosphate)
[20] = Initial, 0.01 mg/mL, pH 1.8 (SGF)
[21] = Initial, 0.01 mg/mL, pH 8.0 (50 mM phosphate)
[22] = Initial, 0.05 mg/mL, pH 1.8 (SGF)
[23] = Initial, 0.05 mg/mL, pH 8.0 (50 mM phosphate)

N#Cc1ccc(COc2cccc(C3=CCN(Cc4nc5ccc(C(=O)O)cc5n4C[C@@H]4CCO4)CC3)n2)c(F)c1 [Tris salt Form B, (S)-2-((6-((4-cyano-2-fluorobenzyl)oxy)-3′,6′-dihydro-[2,4′-bipyridin]-1′(2′H)-yl)methyl)-1-(oxetan-2-ylmethyl)-1H-benzo[d]imidazole-6-carboxylic acid]
Form change after DVS test (Hygroscopicity, DVS test): No | Hygroscopicity (Hygroscopicity, DVS test; according to Chinese Pharmacopeia 2015): Slightly hygroscopic | Water uptake increase between 0% and 10% RH (Hygroscopicity, DVS test; cycle 2 sorption curve): 2.47% | Water uptake from 10% RH to 80% RH (Hygroscopicity, DVS test): 0.97%* | Water uptake from 10% RH to 80% RH (Hygroscopicity, DVS test; listed as 1:1 Compound II Tris Salt (Form B)): 0.97% | Purity (% area) [1, 4]: 94.92 % area | Purity vs. Initial (%) [1, 4]: 99.7% | pH [1, 4]: 1.8 | Purity (% area) [1, 5]: 98.97 % area | Purity vs. Initial (%) [1, 5]: 99.9% | pH [1, 5]: 8.0 | Purity (% area) [1, 6]: 97.53 % area | Purity vs. Initial (%) [1, 6]: 99.3% | pH [1, 6]: 1.8 | Purity (% area) [1, 7]: 99.28 % area | Purity vs. Initial (%) [1, 7]: 100.0% | pH [1, 7]: 8.0 | Purity (% area) [1, 8]: 94.11 % area | Purity vs. Initial (%) [1, 8]: 98.8% | pH [1, 8]: 1.8 | Purity (% area) [1, 9]: 98.38 % area | Purity vs. Initial (%) [1, 9]: 99.3% | pH [1, 9]: 8.0 | Purity (% area) [1, 10]: 96.40 % area | Purity vs. Initial (%) [1, 10]: 98.1% | pH [1, 10]: 1.8 | Purity (% area) [1, 11]: 98.86 % area | Purity vs. Initial (%) [1, 11]: 99.6% | pH [1, 11]: 8.0 | Purity (% area) [1, 12]: 91.81 % area | Purity vs. Initial (%) [1, 12]: 96.4% | pH [1, 12]: 1.8 | Purity (% area) [1, 13]: 98.26 % area | Purity vs. Initial (%) [1, 13]: 99.2% | pH [1, 13]: 8.0 | Purity (% area) [1, 14]: 93.38 % area | Purity vs. Initial (%) [1, 14]: 95.0% | pH [1, 14]: 1.8 | Purity (% area) [1, 15]: 98.98 % area | Purity vs. Initial (%) [1, 15]: 99.7% | pH [1, 15]: 8.0 | Purity (% area) [1, 16]: 87.14 % area | Purity vs. Initial (%) [1, 16]: 91.5% | pH [1, 16]: 1.8 | Purity (% area) [1, 17]: 97.31 % area | Purity vs. Initial (%) [1, 17]: 98.3% | pH [1, 17]: 8.0 | Purity (% area) [1, 18]: 87.15* % area | Purity vs. Initial (%) [1, 18]: 88.7% | pH [1, 18]: 1.8 | Purity (% area) [1, 19]: 98.75 % area | Purity vs. Initial (%) [1, 19]: 99.5% | pH [1, 19]: 8.0 | Purity (% area) [1, 20]: 95.25 % area | pH [1, 20]: 1.8 | Purity (% area) [1, 21]: 99.04 % area | pH [1, 21]: 8.0 | Purity (% area) [1, 22]: 98.26 % area | pH [1, 22]: 1.8 | Purity (% area) [1, 23]: 99.27 % area | pH [1, 23]: 8.0 | Form change ([2]; 25° C./60% RH (open), 1 week): No | Observation ([2]; 25° C./60% RH (open), 1 week): Yellow | Purity (area %) ([2]; 25° C./60% RH (open), 1 week): 93.86 area % | Form change ([2]; 40° C./75% RH (open), 1 week): No | Observation ([2]; 40° C./75% RH (open), 1 week): Yellow | Purity (area %) ([2]; 40° C./75% RH (open), 1 week): 94.13 area % | Chemical stability compared with free form ([2]; 60° C. 1 day, 25° C./60% RH or 40° C./75% RH 1 week): better chemical stability | Form change ([2]; 60° C. (capped), 1 day): No | Observation ([2]; 60° C. (capped), 1 day): Yellow | Purity (area %) ([2]; 60° C. (capped), 1 day): 92.98 area % | Form change ([2]; Initial): No | Observation ([2]; Initial): Yellowish | Purity (area %) ([2]; Initial): 94.56 area % | Ave. Purity (area %) ([3]; 40° C./75% RH (open), 1 day): 94.5 area % | Ave. Purity (area %) ([3]; 40° C./75% RH (open), 3 days): 94.8 area % | Ave. Purity (area %) ([3]; Ambient condition (open), 1 day): 94.4 area % | Ave. Purity (area %) ([3]; Ambient condition (open), 3 days): 94.2 area % | Ave. Purity (area %) ([3]; Initial): 95.5 area %
